Data published in the NIST ThermoML archive (doi:10.1021/je060314n).
Numbers after ± are expanded uncertainties.

Columns and labels:
[1] = Liquid; for mass density: 298.15 K, 101.33 kPa, Vibrating tube method
[2] = refractive index (Na D-line) (dimensionless); conditions: 298.15 K; 101.33 kPa; Liquid; Standard Abbe refractometry

mass density [1] [kg/m3]	vapor or sublimation pressure ([1]; 369.75 K) [kPa]	refractive index [2]	vapor or sublimation pressure ([1]; 418.69 K) [kPa]	vapor or sublimation pressure ([1]; 363.16 K) [kPa]	Structure (SMILES)
799.62 ± 0.14	101.3 ± 2	1.3836 ± 0.0005	–	–	CCCO [propan-1-ol]
870.88 ± 0.23	–	1.3992 ± 0.0005	101.3 ± 2	–	CCCCOC(=O)CC [butyl propanoate]
741.81 ± 0.16	–	1.3784 ± 0.0005	–	101.3 ± 2	CCCOCCC [dipropyl ether]
